Data taken from PMC5838106, “Cathelicidin promotes inflammation by enabling binding of self-RNA to cell surface scavenger receptors” (Scientific Reports, 2018).
Where no end group is shown, it is not given here.

Columns and labels:
SR-A6 = molecular target: T1, SR-A6 (Homo sapiens, UniProt Q9UEW3); assay: Proximity ligation assay for SR-A6 and U1 RNA; type: cell-based; settings: NHEKs, peptide 2.5 μM 10 minutes, biotinylated U1 RNA 2.5 μg/mL, 4 °C, 1 hour
T1 construct: Proximity ligation assay for SR-A6 and U1; endogenous in cells; host or cells: NHEK (primary neonatal human epidermal keratinocytes)
T1 sequence (Q9UEW3 1-520): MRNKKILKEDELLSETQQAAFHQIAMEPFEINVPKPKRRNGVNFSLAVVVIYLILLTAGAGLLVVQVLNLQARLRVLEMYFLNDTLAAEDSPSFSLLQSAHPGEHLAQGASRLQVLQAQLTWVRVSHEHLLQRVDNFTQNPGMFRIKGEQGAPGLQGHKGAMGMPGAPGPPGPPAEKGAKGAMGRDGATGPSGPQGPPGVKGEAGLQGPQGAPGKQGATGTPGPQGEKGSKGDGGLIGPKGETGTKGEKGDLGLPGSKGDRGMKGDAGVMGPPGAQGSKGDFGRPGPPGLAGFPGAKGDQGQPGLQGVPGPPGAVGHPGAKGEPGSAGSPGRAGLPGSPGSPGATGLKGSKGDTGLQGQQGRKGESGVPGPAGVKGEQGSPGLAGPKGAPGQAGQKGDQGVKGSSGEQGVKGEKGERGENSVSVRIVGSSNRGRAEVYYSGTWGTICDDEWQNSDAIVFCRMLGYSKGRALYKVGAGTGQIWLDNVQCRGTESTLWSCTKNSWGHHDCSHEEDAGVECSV
Experimental: NHEKs seeded into 8 chamber slides (Thermo Fisher Scientific) were incubated with various combination of U1 RNA, poly(I:C), cathelicidin peptides, and fucoidan for 1 hour at 4 °C allowing binding, but not internalization. Unbound RNA was removed by washing with cold PBS. Cells were fixed with 4% PFA at 4 °C. Blocking buffer (Sigma) was used to prevent nonspecific antibody binding, and cells were incubated with two primary antibodies. […] Fluorescent PLA signals were evaluated using fluorescence microscopy (described above). Signals are counted by Duolink ImageTool software version 1.0.1.2 (Sigma-aldrich). […]
RNA. NHEKs were cultured with various cathelicidin peptides (2.5 µM) for 10 minutes, then with biotinylated U1 RNA (2.5 µg/mL) at 4 °C for 1 hour before physical proximity of SR-A6 and U1 RNA was determined using a fluorescence-based PLA that produces a red fluorescent signal. […] PMA-treated THP1 were cultured with various cathelicidin peptides (3 µM) for 10 minutes, then with biotinylated U1 RNA (2.5 µg/mL) at 4 °C for 1 hour before physical proximity of U1 RNA and scavenger receptors was determined using a fluorescence-based PLA, each count is PLA complexes observed in 5 visual fields. f) NHEKs cultured at 37 °C that were stained immediately after or after 5 […]

[1] = system: Group A streptococcus (GAS); type: cell-based
Experimental: Figure 1 Inflammatory activity of cathelicidin can be dissociated from antimicrobial function (a) Transcriptomic analysis by RNASeq of primary cultures of normal human epidermal keratinocytes (NHEKs) treated with LL37 (2.5 μM) with or without U1 RNA (2.5 μg/mL) for 24 hours. Shown are gene sets induced > 2 fold over vehicle, and after treatment with LL37, U1 RNA, or the combination of LL37 + U1 RNA. (b) Gene Ontology analysis of gene sets from (a). The number of genes related to each biological process is indicated in parentheses. (c) Amino acid sequence of synthetic cathelicidin peptides used in this study. (d) Antimicrobial assay of cathelicidin peptides against group A streptococcus (GAS). GAS were incubated with various concentrations of each peptide (0–25 μM) for 6 hours, then surviving colonies counted after plating on Todd Hewitt Broth gel. (e) IFN-β1 mRNA abundance and (f) IL-6 mRNA abundance in NHEKs after treatment with cathelicidin peptides (2.5 μM) for 10 minutes, then stimulated with U1 RNA (2.5 μg/mL) for a further 6 hours. (n = 3). (g) IFN-β1 mRNA abundance and (h) IL-6 mRNA abundance in […] (PMA)-treated THP1 cells after treatment with cathelicidin peptides (3 μM) for 10 minutes, then stimulated with U1 RNA (12.5 μg/mL) overnight. (n = 3). Data presented are from one representative experiment of at least two independent experiments. […]

Row | Substance | close association between U1 RNA and SR-A6 (PLA, <40 nm) (SR-A6) | minimal bacteriocidal concentration (MBC) ([1]; 6 h) | antimicrobial activity against group A Streptococcus (GAS) ([1]; GAS incubated with peptide 0–25 μM for 6 hours, surviving colonies counted, Fig. 1d)
1 | LL37 | enabled close association |  | 
2 | LLGDFFRKSKEKIGKEFKRIVQRIKDFLRNLVPR [LL34] | enabled close association | ca. 5 uM | increased antimicrobial activity compared to LL37
